{"source": "paper PMC11233931", "about": "“Remodeling tumor‐associated macrophage for anti‐cancer effects by rational design of irreversible inhibition of mitogen‐activated protein kinase‐activated protein kinase 2” (MedComm, 2024)", "key": {"[1]": {"test_system": "IL-6 and TNF-α secretion by RAW264.7 cells", "experiment": "Cytokine production by ELISA in LPS-stimulated RAW264.7", "type": "cell-based, mouse", "settings": "LPS-stimulated RAW264.7, 24 h", "method": "FIGURE 4 Targeting cellular MK2 signaling with irreversible inhibition by compound 11. (A and B) RT‐PCR analysis of IL‐1β, TNF‐α, and IL‐6 expression in Lipopolysaccharides (LPS)‐stimulated THP‐1 (A) and RAW264.7 (B) Cells, with pre‐treatment of compound 11 for 3 h followed by LPS (3 h) stimulation. (C) The inhibitory effects of compound 11 on TNF‐α and IL‐6 production in LPS‐stimulated RAW264.7 macrophages for 24 h, measured by ELISA. (D and E) Compound 11, alongside CC‐99677 and PF‐3644022, suppressed MK2 pathway activation, validated through western blot analysis post‐LPS stimulation. Cells were preincubated with the specified compounds for 1 h prior to LPS stimulation (100 ng/mL, 30 min). (F) Distinguishes the mode of action between compound 11 and CC‐99677. The complex structure of a small molecule and MK2 (3R2Y) with the same parent nucleus as compound 11 is shown in cyans, and the complex structure of a small molecule and MK2 (3FYJ) with the same parent nucleus as CC‐99677 is shown in orange. (G–I) The effect of indicated inhibitor on Hsp27 phosphorylation following inhibitor washout. […]\nFollowing collection and centrifugation of the cell culture media, supernatants were harvested and the levels of cytokine secretion were evaluated using specific ELISA kits (absin), following the manufacturer's protocol."}, "[2]": {"test_system": "p-Hsp27 (Ser82) and p-MK2 (T334) in THP-1 derived macrophages", "experiment": "Western blot of MK2 signaling in LPS-stimulated THP-1 derived macrophages", "type": "cell-based, human", "settings": "1 h preincubation, LPS 100 ng/mL 30 min", "method": "FIGURE 4 Targeting cellular MK2 signaling with irreversible inhibition by compound 11. (A and B) RT‐PCR analysis of IL‐1β, TNF‐α, and IL‐6 expression in Lipopolysaccharides (LPS)‐stimulated THP‐1 (A) and RAW264.7 (B) Cells, with pre‐treatment of compound 11 for 3 h followed by LPS (3 h) stimulation. (C) The inhibitory effects of compound 11 on TNF‐α and IL‐6 production in LPS‐stimulated RAW264.7 macrophages for 24 h, measured by ELISA. (D and E) Compound 11, alongside CC‐99677 and PF‐3644022, suppressed MK2 pathway activation, validated through western blot analysis post‐LPS stimulation. Cells were preincubated with the specified compounds for 1 h prior to LPS stimulation (100 ng/mL, 30 min). (F) Distinguishes the mode of action between compound 11 and CC‐99677. The complex structure of a small molecule and MK2 (3R2Y) with the same parent nucleus as compound 11 is shown in cyans, and the complex structure of a small molecule and MK2 (3FYJ) with the same parent nucleus as CC‐99677 is shown in orange. (G–I) The effect of indicated inhibitor on Hsp27 phosphorylation following inhibitor washout. Cells were pretreated with indicated compounds for 1 h and then washed to remove free compound and incubated for a further indicated time before activation with LPS. In (A–C), LPS (100 ng/mL) served as the stimulation control, while untreated cells were the baseline control. The data represent as mean ± SD from triplicates, with statistical analysis conducted via one‐way analysis of variance (ANOVA) (^## p < 0.01, ^### p < 0.001 vs. stimulation control; ^***p < 0.001 vs. baseline control).\nNext, the efficacy of compound 11 in cellular MK2 signaling inhibition was evaluated by examining both p‐MK2 and p‐Hsp27 at Ser82 levels, the latter being a direct downstream substrate of p‐MK2. […] We try to explore this interesting phenomenon by superimposing the complex crystal structure (3FYJ) that harboring the same skeleton as CC‐99677 (Figure 4F). […] In that way, CC‐99677 binding to MK2 kinase after pre‐incubation with cells and after LPS stimulation may cause the difference in the spatial conformation of MK2 kinase domain, which may make p38 cannot properly bind to MK2, resulting in a decrease in the phosphorylation of MK2.\nAfter the treatment outlined in the figure legends, cells were lysed using 1× sodium dodecyl sulfate (SDS) solution. The lysates were then subjected to SDS‐polyacrylamide gel electrophoresis for separation, followed by transferring onto nitrocellulose membranes. […] Protein bands were detected using an enhanced chemiluminescence detection reagent (Thermo Fisher Scientific)."}, "[3]": {"test_system": "TAMs and CD206+ TAMs in MC38 tumor", "experiment": "Flow cytometry of tumor infiltrating TAMs in MC38 tumor model", "type": "in vivo, mouse", "settings": "treated 9 days", "method": "FIGURE 5 Inhibition of pro‐tumorigenic M2‐like polarization in macrophages by compound 11. (A–C) RT‐PCR analysis highlights the impact of compound 11 on MRC1 and ARG‐1 mRNA expression in various macrophage cells treated with IL‐4/IL‐13 alone or combined with compound 11 for 12 h or 24 h. (D) CD206 and Arg‐1 expression in bone marrow‐derived macrophages (BMDM) cells via flow cytometry post 48 h treatment of compound 11 and IL‐4/IL‐13. (E) The treatment effects of compound 11 in THP‐1 cells using western blot analysis. Cells were pretreated with compound 11 for 1 h and followed by IL‐4/IL‐13 treatment (30 min). (F) The influence of MK2 siRNA on MRC1 and ARG‐1 mRNA expression in THP‐1 cells by RT‐PCR analysis post‐IL‐4/IL‐13 stimulation (12 h). […] Data are shown as the mean ± SD. ^* p < 0.05; ^*** p < 0.001 versus the vehicle group, determined by unpaired t test. […]\nAntibodies targeting specific proteins along with corresponding isotype controls or FMO controls were employed to examine the leukocyte infiltrate: CD11b, CD45, CD206, Arg‐1, and F4/80 (BD, eBioscience and Biolegend). […] Eventually, the gathered data were analyzed using the FlowJo software, with the gating strategies utilized for flow cytometry represented in Figure S5."}}, "data": [{"compound": "C=CC(=O)Nc1cc(-c2cc(-c3cc4c([nH]3)CCNC4=O)ccn2)ccc1OC(F)(F)F", "note": "[compound 11]", "values": [{"measurement": "effect on secretion level of IL-6 and TNF-α", "setting": "[1]", "result": "similarly reduced"}, {"measurement": "effect on MK2 phosphorylation at T334 site", "setting": "[2]", "result": "did not inhibit"}, {"measurement": "effect on phosphorylation of Hsp27 (Ser82)", "setting": "[2]", "result": "significantly inhibited"}, {"measurement": "effect on total and M2-like (CD206+) TAM populations in tumor", "setting": "[3]", "result": "marked reduction"}]}]}
